The text below walks through data of patent publication US8167991B2, “Trisazo compound, ink composition, recording method, and colored article” (Nippon Kayaku Kabushiki Kaisha, priority 2006, dated 2012).

Like-named read-outs stand apart in the source and are kept apart here.

This series is described as follows: Solubility of the dye compound. Type of series: physicochemical.
Setting [1] is: compound obtained as a sodium salt, read-out: solubility.
[2] abbreviates: water, read-out: solubility in water.

With `CCCc1c(N=Nc2cc(C)c(N=Nc3ccc(N=Nc4ccc(S(=O)(=O)O)cc4)cc3S(=O)(=O)O)cc2OCCCS(=O)(=O)O)c(O)n2c(nc3ccccc32)c1C#N.CS(=O)(=O)O` [Compound No. 3], the solubility (as a rule, the dissolved amount per volume that the medium holds) under setting [1] was not below 100 mg/mL. Turning to `CS(=O)(=O)O.Cc1cc(N=Nc2c(-c3ccccc3)c(C#N)c3nc4ccccc4n3c2O)c(OCCCS(=O)(=O)O)cc1N=Nc1ccc(N=Nc2ccc(S(=O)(=O)O)cc2)cc1S(=O)(=O)O` [Compound No. 4], the solubility under setting [1] is not below 100 mg/mL. The same measure, in the same setting: the value for `CS(=O)(=O)O.Cc1cc(N=Nc2c(C)c(C#N)c3nc4ccccc4n3c2O)c(OCCCS(=O)(=O)O)cc1N=Nc1cc(C)c(N=Nc2ccc(S(=O)(=O)O)cc2C(=O)O)cc1OCCCS(=O)(=O)O` [Compound No. 6] was not below 100 mg/mL; that for `CS(=O)(=O)O.Cc1cc(N=Nc2c(C)c(C(N)=O)c3nc4ccccc4n3c2O)c(OCCCS(=O)(=O)O)cc1N=Nc1cc(C)c(N=Nc2ccc(S(=O)(=O)O)cc2C(=O)O)cc1OCCCS(=O)(=O)O` [Compound No. 7] was not below 100 mg/mL. Same read-out and setting: the same measure for `CS(=O)(=O)O.Cc1cc(N=Nc2c(C)c(C#N)c3nc4ccccc4n3c2O)c(OCCCCS(=O)(=O)O)cc1N=Nc1ccc(N=Nc2ccc(S(=O)(=O)O)cc2)cc1S(=O)(=O)O` [Compound No. 20]: not below 100 mg/mL. The same measure, in the same setting: the same measure for `Cc1cc(N=Nc2c(S(=O)(=O)O)cc3c(S(=O)(=O)O)c(N=Nc4cc(S(=O)(=O)O)c5cc(S(=O)(=O)O)c(N=Nc6ccc([N+](=O)[O-])cc6S(=O)(=O)O)c(O)c5c4N)ccc3c2O)c(OCCCS(=O)(=O)O)cc1N=Nc1cc(C)c(N=Nc2ccc(S(=O)(=O)O)c3cc(S(=O)(=O)O)cc(O)c23)cc1OCCCS(=O)(=O)O` [formula (75)]: not below 100 mg/mL. Turning to `Nc1c(N=Nc2ccc3c(O)c(N=Nc4ccc5c(O)c(N=Nc6ccc(N=Nc7ccc(S(=O)(=O)O)cc7)cc6S(=O)(=O)O)c(S(=O)(=O)O)cc5c4S(=O)(=O)O)c(S(=O)(=O)O)cc3c2S(=O)(=O)O)cc(S(=O)(=O)O)c2cc(S(=O)(=O)O)c(N=Nc3ccc([N+](=O)[O-])cc3S(=O)(=O)O)c(O)c12` [formula (II-56)], the solubility under setting [2] was not below 100 mg/mL. Still for that read-out and setting: the same measure for `Nc1c(N=Nc2ccc3c(O)c(N=Nc4ccc5c(O)c(N=Nc6ccc(N=Nc7ccc(S(=O)(=O)O)cc7)cc6S(=O)(=O)O)c(S(=O)(=O)O)cc5c4S(=O)(=O)O)c(S(=O)(=O)O)cc3c2S(=O)(=O)O)cc(S(=O)(=O)O)c2cc(S(=O)(=O)O)c(N=Nc3ccc(S(=O)(=O)O)cc3[N+](=O)[O-])c(O)c12` [formula (II-57)]: not below 100 mg/mL; for `Cc1cc(N=Nc2c(S(=O)(=O)O)cc3c(S(=O)(=O)O)c(N=Nc4c(S(=O)(=O)O)cc5c(S(=O)(=O)O)c(N=Nc6cc(S(=O)(=O)O)c7cc(S(=O)(=O)O)c(N=Nc8ccc([N+](=O)[O-])cc8S(=O)(=O)O)c(O)c7c6N)ccc5c4O)ccc3c2O)c(OCCCS(=O)(=O)O)cc1N=Nc1cc(S(=O)(=O)O)cc2cc(S(=O)(=O)O)cc(O)c12` [formula (II-59)]: not below 100 mg/mL.

As to `Cc1cc(N=Nc2c(S(=O)(=O)O)cc3c(S(=O)(=O)O)c(N=Nc4c(S(=O)(=O)O)cc5c(S(=O)(=O)O)c(N=Nc6cc(S(=O)(=O)O)c7cc(S(=O)(=O)O)c(N=Nc8ccc([N+](=O)[O-])cc8S(=O)(=O)O)c(O)c7c6N)ccc5c4O)ccc3c2O)c(OCCCS(=O)(=O)O)cc1N=Nc1cc(C(=O)O)cc(C(=O)O)c1` [formula (II-61)], the solubility under setting [2] was not below 100 mg/mL.
